# Patent US12053511B2, “Cystatin C and Cystatin 9 to treat gut inflammation caused by thermal injury” (priority 2016, dated 2024)
# Test system: NDM-1 Kp
# Assay: LD90 NDM-1 Kp pneumonia murine model, survival
# Assay type: in vivo, Balb/c mice
# Conditions: colistin 20 or 1.25 mg/kg/day, days 4 and 5 PI
# Description: To establish the optimal CST route, timing, and dosage regimen against MDR NDM-1 Kp-induced pneumonia, Balb/c mice (n=10-20 mice/gp) were infected with an i.n. LD90 and treated at various times and doses as depicted in Table 1. Doses included i.n. and/or i.p. single rCST9, rCSTC or a combination of rCST9 and rCSTC. Mice that were infected with NDM-1 Kp but were not treated served as controls. rCST treatments by routes, doses, or as a combined therapy were studied to select an optimal regimen.
# Evaluate optimal timing and dosage of rCST-9 and/or PEG-rCST9 administration post-infection. Balb/c mice (n=10-20 mice/gp) were intranasally (i.n.) infected with approximately 1.82×10^8 CFU/mouse of Kp 2146 (as established hereinabove) then treated i.n. or i.p. with rCST9, human recombinant cystatin C (rCSTC) or a combination of rCST9 and rCSTC as depicted in Table 1. Kp infected alone served as controls. […] Therefore, as a comparative control to rCST9, the inventors evaluated the effectiveness of rCSTC against pneumonia using the same doses of 50 and/or 500 pg/mouse.
# The potential for rCST9/rCSTC treatment to extend the period before successful antibiotic intervention was initiated was determined. For these evaluations, suboptimal doses of colistin were used to determine the extent of protection afforded by rCSTs as well as to minimize side effects/toxicity caused by this antibiotic (n=10 mice/gp). Doses, timing, and route of colistin were chosen based on efficacy studies of colistin in a mouse model of severe, established MDR pneumonia or a very low dose of colistin then adjusted to suboptimal levels for this study. LD90 NDM-1 Kp-challenged mice were treated with the rCST9/rCSTC 3 d i.p. treatment and then given 2 doses of colistin at 20 mg/kg/day or 1.25 mg/kg/day on day 4 and 5 PI.
# Mouse model of pneumonia and CST treatments. Eight-week old female Balb/c mice weighing between 21 and 24 grams (Jackson Laboratories) were housed in an Association for Assessment and Accreditation for Laboratory Animal Care (AAALAC)-approved housing facility and permitted to adjust to their environment for 7 d prior to procedures, receiving free access to food and water throughout the study. All procedures were approved by the University of Texas Medical Branch IACUC and performed humanely with minimal suffering. […] One hour PI, mice were administered an i.n. dose of rCST9/rCSTC (50 pg of each) and then, this group of mice was given an i.p. injection of rCST9/rCSTC (500 pg of each) 3 d PI. A parallel group of infected mice received only a single i.p. dose of rCST9/rCSTC, PEG-rCST9/rCSTC (500 pg of each), or PEG-rCST9 (500 pg) alone 3 d PI. NDM-1-Kp infected mice alone or uninfected mice served as controls. Survival was observed up to 15 days post treatment. Additional groups (n=4 mice/group) of infected and CST-treated mice were euthanized at selected time points (24 h, 72 h, 5 and/or 10 d PI) to harvest lungs. Additional groups were treated with i.n. rCSTs (50 pg of each) as described above but they were euthanized at 30 min, 1 h and 3 h to collect lungs for the quantification of lipid peroxidase by-product, known as malondialdehyde (MDA), as described below.
# Additional groups of mice (n=15 mice/group) were treated with the optimal CST treatment regimens of an i.n. dose of rCST9/rCSTC (50 pg of each), followed by an i.p. injection of rCST9/rCSTC (500 pg of each) 3 d PI or the single i.p. dose of rCST9/rCSTC (500 pg of each). At 4 d PI, mice were given 2 separate i.p. injections of colistin (JHP Pharmaceuticals, LLC; colistimethate sodium; 20 mg/kg/mouse or 1.25 mg/kg/day) 8 h apart for 2 d.
substance,measurement,value
colistin [reference compound],survival protection compared to rCST monotherapy,neither of the antibiotic doses surpassed protection afforded by the rCST monotherapy
